Source: PubChem BioAssay AID2060490 (Molecular Pharmacology Branch, DTP, NCI, 2025)

Test system: 885512-296-R-J2-PDC complex spheroid viability
Assay: Anticancer human tumor 885512-296-R-J2-PDC patient-derived breast carcinoma cell line growth inhibition [GQUAD]
Conditions: for IC50: curve of first compound; for viability, T/C: stronger effect = lower value
Summary of the method: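 Tumor cells were grown as complex spheroids with HUVEC endothelial cells and mesenchymal stem cells as stroma. G-quadruplex stabilizers were combined with targeted agents over half-log dilutions from near the clinical Cmax, or from 10 microM.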

[1] = second compound 0.0316 µM, first compound 0.0316 µM
[2] = second compound 0.0316 µM, first compound 0.1 µM
[3] = second compound 0.0316 µM, first compound 0.316 µM
[4] = second compound 0.0316 µM, first compound 1 µM
[5] = second compound 0.0316 µM, first compound 3.16 µM
[6] = second compound 0.0316 µM, first compound 10 µM
[7] = second compound 0.1 µM, first compound 0.0316 µM
[8] = second compound 0.1 µM, first compound 0.1 µM
[9] = second compound 0.1 µM, first compound 0.316 µM
[10] = second compound 0.1 µM, first compound 1 µM
[11] = second compound 0.1 µM, first compound 3.16 µM
[12] = second compound 0.1 µM, first compound 10 µM
[13] = second compound 0.316 µM, first compound 0.0316 µM
[14] = second compound 0.316 µM, first compound 0.1 µM
[15] = second compound 0.316 µM, first compound 0.316 µM
[16] = second compound 0.316 µM, first compound 1 µM
[17] = second compound 0.316 µM, first compound 3.16 µM
[18] = second compound 0.316 µM, first compound 10 µM
[19] = second compound 1 µM, first compound 0.0316 µM
[20] = second compound 1 µM, first compound 0.1 µM
[21] = second compound 1 µM, first compound 0.316 µM
[22] = second compound 1 µM, first compound 1 µM
[23] = second compound 1 µM, first compound 3.16 µM
[24] = second compound 1 µM, first compound 10 µM
[25] = second compound 3.16 µM, first compound 0.0316 µM
[26] = second compound 3.16 µM, first compound 0.1 µM
[27] = second compound 3.16 µM, first compound 0.316 µM
[28] = second compound 3.16 µM, first compound 1 µM
[29] = second compound 3.16 µM, first compound 3.16 µM
[30] = second compound 3.16 µM, first compound 10 µM
[31] = second compound 10 µM, first compound 0.0316 µM
[32] = second compound 10 µM, first compound 0.1 µM
[33] = second compound 10 µM, first compound 0.316 µM
[34] = second compound 10 µM, first compound 1 µM
[35] = second compound 10 µM, first compound 3.16 µM
[36] = second compound 10 µM, first compound 10 µM
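Note: spheroids exposed to the compounds for one week.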
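Throughout, for viability, T/C: percent of tumor spheroid viability relative to DMSO vehicle control wells.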

With `Cc1cccc(N(C)C(=O)C2C(O)CCN2c2nc(C)cc(C(F)(F)F)c2C#N)c1` (stereo not drawn) + Cc1[nH]c2ccc(F)cc2c1-c1nc2c3cccnc3c3ncccc3c2[nH]1 the IC50 (second compound 0.0316 µM) was > 10000 nM, the IC50 (second compound 0.1 µM) was > 10000 nM and the IC50 (second compound 0.316 µM) was > 10000 nM. For the same molecule, the IC50 (second compound 1 µM) was > 10000 nM, the IC50 (second compound 3.16 µM) was < 31.6 nM and the IC50 (second compound 10 µM) was < 31.6 nM. It also gave a viability, T/C [1] of 101%, a viability, T/C [2] of 92.6% and a viability, T/C [3] of 108%. It also gave a viability, T/C [4] of 97.3%, a viability, T/C [5] of 96.7% and a viability, T/C [6] of 91.5%. For the same molecule, the viability, T/C [7] was 98.5%, the viability, T/C [8] was 99.8% and the viability, T/C [9] was 100%. It also gave a viability, T/C [10] of 94.2%, a viability, T/C [11] of 105% and a viability, T/C [12] of 93.2%. It also gave a viability, T/C [13] of 90.2%, a viability, T/C [14] of 98.9% and a viability, T/C [15] of 98.8%. It also gave a viability, T/C [16] of 94.2%, a viability, T/C [17] of 90.7% and a viability, T/C [18] of 82.4%. For the same molecule, the viability, T/C [19] was 83.5%, the viability, T/C [20] was 78.2% and the viability, T/C [21] was 87.4%. It also gave a viability, T/C [22] of 88.8%, a viability, T/C [23] of 90.5% and a viability, T/C [24] of 68.6%. For the same molecule, the viability, T/C [25] was 30.2%, the viability, T/C [26] was 30.1% and the viability, T/C [27] was 16.5%. It also gave a viability, T/C [28] of 22.4%, a viability, T/C [29] of 20.8% and a viability, T/C [30] of 19.9%. The viability, T/C [31] was 3.35%, the viability, T/C [32] was 3.56% and the viability, T/C [33] was 2.69%. It also gave a viability, T/C [34] of 2.33%, a viability, T/C [35] of 2.29% and a viability, T/C [36] of 2.63%.

In the case of `COc1cccc2c1C(=O)c1c(O)c3c(c(O)c1C2=O)CC(O)(C(=O)CO)CC3OC1CC(N)C(O)C(C)O1` (stereo not drawn) + CN(C)c1ccc(Nc2c3ccc(NC(=O)CCN4CCCC4)cc3nc3cc(NC(=O)CCN4CCCC4)ccc23)cc1, the IC50 (second compound 0.0316 µM) is reported as 69.7 nM, the IC50 (second compound 0.1 µM) is reported as 72.6 nM and the IC50 (second compound 0.316 µM) is reported as 78.8 nM. The IC50 (second compound 1 µM) was 76.6 nM, the IC50 (second compound 3.16 µM) was 70.6 nM and the IC50 (second compound 10 µM) was < 31.6 nM. It also gave a viability, T/C [1] of 83.5%, a viability, T/C [2] of 29.8% and a viability, T/C [3] of 23.5%. The viability, T/C [4] was 6.89%, the viability, T/C [5] was 0.38% and the viability, T/C [6] was 3.01%. It also gave a viability, T/C [7] of 90.9%, a viability, T/C [8] of 31.5% and a viability, T/C [9] of 18.5%. For the same molecule, the viability, T/C [10] was 8.24%, the viability, T/C [11] was 1.04% and the viability, T/C [12] was 2.8%. For the same molecule, the viability, T/C [13] was 95.3%, the viability, T/C [14] was 35.2% and the viability, T/C [15] was 20.9%. For the same molecule, the viability, T/C [16] was 7.15%, the viability, T/C [17] was 1.27% and the viability, T/C [18] was 3.37%. For the same molecule, the viability, T/C [19] was 95%, the viability, T/C [20] was 30% and the viability, T/C [21] was 26.1%. It also gave a viability, T/C [22] of 8.92%, a viability, T/C [23] of 0.75% and a viability, T/C [24] of 3.6%. It also gave a viability, T/C [25] of 81.5%, a viability, T/C [26] of 34.8% and a viability, T/C [27] of 18.1%. For the same molecule, the viability, T/C [28] was 8.3%, the viability, T/C [29] was 3.01% and the viability, T/C [30] was 2.07%. For the same molecule, the viability, T/C [31] was 26.5%, the viability, T/C [32] was 20% and the viability, T/C [33] was 9.35%. The viability, T/C [34] was 5.9%, the viability, T/C [35] was 0.9% and the viability, T/C [36] was 1.52%.

With `CCCS(=O)(=O)Nc1ccc(F)c(C(=O)c2c[nH]c3ncc(-c4ccc(Cl)cc4)cc23)c1F` + Cc1cnc(CNC(=O)c2c(=O)c3ccc(N4CCCN(C)CC4)nc3n3c2sc2ccccc23)cn1 the IC50 (second compound 0.0316 µM) was > 10000 nM, the IC50 (second compound 0.1 µM) was > 10000 nM and the IC50 (second compound 0.316 µM) was < 31.6 nM. The IC50 (second compound 1 µM) was < 31.6 nM, the IC50 (second compound 3.16 µM) was < 31.6 nM and the IC50 (second compound 10 µM) was < 31.6 nM. The viability, T/C [1] was 97.5%, the viability, T/C [2] was 93.9% and the viability, T/C [3] was 97.1%. It also gave a viability, T/C [4] of 91.7%, a viability, T/C [5] of 102% and a viability, T/C [6] of 58.8%. The viability, T/C [7] was 65.8%, the viability, T/C [8] was 61% and the viability, T/C [9] was 64.3%. It also gave a viability, T/C [10] of 67.6%, a viability, T/C [11] of 71.2% and a viability, T/C [12] of 41.5%. It also gave a viability, T/C [13] of 30.3%, a viability, T/C [14] of 24.9% and a viability, T/C [15] of 22.9%. The viability, T/C [16] was 34.2%, the viability, T/C [17] was 45.6% and the viability, T/C [18] was 25.4%. For the same molecule, the viability, T/C [19] was 19.2%, the viability, T/C [20] was 26% and the viability, T/C [21] was 26.4%. It also gave a viability, T/C [22] of 33.6%, a viability, T/C [23] of 36% and a viability, T/C [24] of 22.7%. For the same molecule, the viability, T/C [25] was 20.9%, the viability, T/C [26] was 29.3% and the viability, T/C [27] was 26.5%. The viability, T/C [28] was 25.8%, the viability, T/C [29] was 24.5% and the viability, T/C [30] was 0.29%. For the same molecule, the viability, T/C [31] was 0.15%, the viability, T/C [32] was 0.16% and the viability, T/C [33] was 0.18%. The viability, T/C [34] was 0.17%, the viability, T/C [35] was 0.15% and the viability, T/C [36] was 0.18%.

In the case of `COc1ncnc(C2CC2)c1-c1ncc2cnn(Cc3ccc(-c4nc(C(F)(F)F)cn4C(C)C)cc3)c2n1` + Cc1cnc(CNC(=O)c2c(=O)c3ccc(N4CCCN(C)CC4)nc3n3c2sc2ccccc23)cn1, the IC50 (second compound 0.0316 µM) is reported as > 10000 nM, the IC50 (second compound 0.1 µM) is reported as > 10000 nM and the IC50 (second compound 0.316 µM) is reported as < 31.6 nM. The IC50 (second compound 1 µM) was < 31.6 nM, the IC50 (second compound 3.16 µM) was < 31.6 nM and the IC50 (second compound 10 µM) was < 31.6 nM. It also gave a viability, T/C [1] of 94.7%, a viability, T/C [2] of 76% and a viability, T/C [3] of 76.9%. The viability, T/C [4] was 78.2%, the viability, T/C [5] was 80.6% and the viability, T/C [6] was 77.7%. The viability, T/C [7] was 62.5%, the viability, T/C [8] was 52.4% and the viability, T/C [9] was 54.4%. For the same molecule, the viability, T/C [10] was 51.4%, the viability, T/C [11] was 61.5% and the viability, T/C [12] was 58.8%. It also gave a viability, T/C [13] of 22.1%, a viability, T/C [14] of 24.6% and a viability, T/C [15] of 24.9%. For the same molecule, the viability, T/C [16] was 29.5%, the viability, T/C [17] was 27.3% and the viability, T/C [18] was 22.5%. For the same molecule, the viability, T/C [19] was 27.8%, the viability, T/C [20] was 35.9% and the viability, T/C [21] was 29.4%. The viability, T/C [22] was 20.9%, the viability, T/C [23] was 32% and the viability, T/C [24] was 29.5%. The viability, T/C [25] was 23.5%, the viability, T/C [26] was 29.2% and the viability, T/C [27] was 26.2%. It also gave a viability, T/C [28] of 29.4%, a viability, T/C [29] of 32.7% and a viability, T/C [30] of 29.4%. For the same molecule, the viability, T/C [31] was 0.13%, the viability, T/C [32] was 0.18% and the viability, T/C [33] was 0.34%. The viability, T/C [34] was 0.18%, the viability, T/C [35] was 1.03% and the viability, T/C [36] was 0.25%.
